# Measured values as given in patent US20250136612A1, “4',5'-DIHYDROSPIRO[PIPERIDINE-4,7'-THIENO[2,3-C]PYRAN] DERIVATIVES AS INHIBITORS OF APOL1 AND METHODS OF USING SAME” (VERTEX PHARMACEUTICALS INCORPORATED, priority 2022, published 2025).
# Target: T1, APOL1 (Homo sapiens, UniProt O14791)
# T1 sequence (O14791 1-398 S342G/I384M): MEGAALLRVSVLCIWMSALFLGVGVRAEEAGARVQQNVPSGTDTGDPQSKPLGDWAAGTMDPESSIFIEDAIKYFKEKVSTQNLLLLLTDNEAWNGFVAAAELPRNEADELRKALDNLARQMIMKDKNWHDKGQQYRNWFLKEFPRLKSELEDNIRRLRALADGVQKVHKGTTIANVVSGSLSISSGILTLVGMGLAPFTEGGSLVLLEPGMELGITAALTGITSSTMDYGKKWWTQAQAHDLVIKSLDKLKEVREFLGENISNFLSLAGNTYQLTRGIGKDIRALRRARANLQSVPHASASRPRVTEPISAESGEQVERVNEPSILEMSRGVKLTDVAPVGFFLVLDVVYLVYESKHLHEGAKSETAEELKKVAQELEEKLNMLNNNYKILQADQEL
# Experiment: MultiTox-Fluor Multiplex Cytotoxicity Assay in tet-inducible APOL1 T-REx-HEK293 cells
# Format: cell-based
# Conditions: 50 ng/mL tet, 24 hours, ratio of dead to live cells, read-out: IP50 (i.e., IC50 for cell proliferation)
# Description: The MultiTox-Fluor Multiplex Cytotoxicity Assay is a single-reagent-addition, homogeneous, fluorescence assay that measures the number of live and dead cells simultaneously in culture wells. The assay measures cell viability and cytotoxicity by detecting two distinct protease activities. The live-cell protease activity is restricted to intact viable cells and is measured using a fluorogenic, cell-permeant peptide glycyl-phenylalanylamino fluorocoumarin (GF-AFC) substrate. The substrate enters intact cells, where it is cleaved to generate a fluorescent signal proportional to the number of living cells. […] A second, cell-impermeant, fluorogenic peptide substrate (bis-AAF-R110 Substrate) is used to measure dead-cell protease that has been released from cells that have lost membrane integrity. A ratio of dead to live cells is used to normalize data.
# Briefly, the tet-inducible transgenic APOL1 T-REx-HEK293 cell lines were incubated with 50 ng/mL tet to induce APOL1 in the presence of 3-(2-(4-fluorophenyl)-1H-indol-3-yl)-N-((3S,4R)-4-hydroxy-2-oxopyrrolidin-3-yl)propenamide at 10.03, 3.24, 1.13, 0.356, 0.129, 0.042, 0.129, 0.0045, 0.0015, 0.0005 μM in duplicate for 24 hours in a humidified 37° C. incubator. The MultiTox reagent was added to each well and placed back in the incubator for an additional 30 minutes. The plate was read on the EnVision plate reader. A ratio of dead to live cells was used to normalize, and data was imported, analyzed, and fit using Genedata Screener (Basel, Switzerland) software. Data was normalized using percent of control, no tet (100% viability), and 50 ng/mL tet treated (0% viability),and fit using Smart Fit. The reagents, methods, and complete protocol for the MultiTox assay are described below.
# Human embryonic kidney (HEK293) cell lines containing a tet-inducible expression system (T-REx™; Invitrogen, Carlsbad, CA) and Adeno-associated virus site 1 pAAVS1-Puro-APOL1 G0 or pAAVS1-Puro-APOL1 G1 or pAAVS1-Puro-APOL1 G2 Clones G0 DC2.13, G1 DC3.25, and G2 DC4.44 were grown in a T-225 flask at ˜90% confluency in cell growth media (DMEM, 10% Tet-free FBS, 2 mM L-glutamine, 100 Units/mL penicillin-streptomycin, 5 μg/mL blasticidin S HCl, 1 μg/mL puromycin dihydrochloride). Cells were washed with DPBS and then trypsinized to dissociate from the flask. Media was used to quench the trypsin, cells were then pelleted at 200 g and resuspended in fresh cell assay media (DMEM, 2% Tet-free FBS, 2 mM L-glutamine, 100 Units/mL penicillin-streptomycin). Cells were counted and diluted to 1.17×10^6 cells/mL. 20 μL of cells (23,400/well) were dispensed in every well of a 384-well Poly-D-Lysine coated plate using the Multidrop dispenser. The plates were then incubated at room temperature for one hour.
# Tetracycline is needed to induce APOL1 expression. 1 mg/mL tet stock in water was diluted to 250 ng/mL (5×) in cell assay media. 60 μL of cell assay media (no tet control) was dispensed in columns 1 and 24, and 60 μL of 5×tet in 384-PP-round bottom plate was dispensed in columns 2 to 23 with the Multidrop dispenser.
# Assay ready plates from the Global Compound Archive were ordered using template 384_APOL1Cell_DR10n2_50 uM_v3. Compounds were dispensed at 200 nL in DMSO. The final top concentration was 10 μM with a 10 point 3-fold dilution in duplicate in the MultiTox assay.
# 20 μL was transferred from the 5×tet plate to the ARP and mixed, then 5 μL of 5×tet and the compounds were transferred to the cell plate and mixed using the Bravo. The cell plate was placed in the humidified 37° C. 5% CO2 incubator for 24 hours.
# The MultiTox-Fluor Multiplex Cytotoxicity Assay was performed in accordance with the manufacturer's protocol. After cells were incubated with tet and compound for 24 hours, 25 μL of 1×MultiTox reagent was added to each well using the Multidrop dispenser; the plates were placed on a plate shaker (600 rpm) for 2 minutes, then centrifuged briefly and placed back in the 37° C. incubator for 30 minutes. […]
row,Compound,IC50 [nM]
1,"Cn1cc([C@@H]2C[C@]3(CCN2)OCCc2cc(Cl)sc23)nn1 (single isomer, unassigned) [Compound 2]",100 to 500
2,"Cc1cc([C@@H]2C[C@]3(CCN2)OCCc2cc(Cl)sc23)no1 (single isomer, unassigned) [Compound 23]",100 to 500
3,"Cn1cc([C@@H]2C[C@]3(CCN2)OCCc2cc(Cl)sc23)cn1 (single isomer, unassigned) [Compound 24]",< 100
4,"Cc1cc([C@@H]2C[C@]3(CCN2)OCCc2cc(Cl)sc23)on1 (single isomer, unassigned) [Compound 25]",100 to 500
5,"CCc1cc2c(s1)CCOC21CCNC(C2CC2)C1 (single isomer, unassigned) [Compound 29, 2′-cyclopropyl-2-ethyl-spiro[6,7-dihydrothieno[3,2-c]pyran-4,4′-piperidine]]",500 to 1000
6,"Cn1cc([C@@H]2C[C@]3(CCN2)OCCc2cc(C4CC4)sc23)nn1 (single isomer, unassigned) [Compound 31]",100 to 500
7,"Cc1cc2c(s1)C1(CCN[C@H](c3cn(C)nn3)C1)OCC2 (single isomer, unassigned) [Compound 32]",100 to 500
8,"Cn1cc([C@@H]2C[C@]3(CCN2)OCC(C)(O)c2cc(Cl)sc23)nn1 (single isomer, unassigned) [Compound 37]",500 to 1000
9,"Cn1cc([C@@H]2C[C@]3(CCN2)OCC(C)(O)c2cc(Cl)sc23)nn1 (single isomer, unassigned) [Compound 38]",100 to 500
10,"Cn1cc([C@@H]2C[C@]3(CCN2)OCC(O)(C(F)F)c2cc(Cl)sc23)nn1 (single isomer, unassigned) [Compound 39]",500 to 1000
11,"Cn1cc([C@@H]2C[C@]3(CCN2)OCC(O)(C(F)F)c2cc(Cl)sc23)nn1 (single isomer, unassigned) [Compound 40]",< 100
12,"COC1CO[C@]2(CCN[C@H](c3cn(C)nn3)C2)c2sc(Cl)cc21 (single isomer, unassigned) [Compound 42]",500 to 1000
13,"Cn1cc(C2CC3(CCN2)OCC(O)c2cc(Br)sc23)nn1 (single isomer, unassigned) [Compound 44, 2-bromo-2′-(1-methyltriazol-4-yl)spiro[4,5-dihydrothieno[2,3-c]pyran-7,4′-piperidine]-4-ol]",500 to 1000
14,"Cn1cc(C2CC3(CCN2)OCC(O)c2cc(Br)sc23)nn1 (single isomer, unassigned) [Compound 45, 2-bromo-2′-(1-methyltriazol-4-yl)spiro[4,5-dihydrothieno[2,3-c]pyran-7,4′-piperidine]-4-ol]",< 100
15,"CC(O)c1c(C(F)(F)F)sc2c1CCOC21CCN[C@H](c2cn(C)nn2)C1 (single isomer, unassigned) [Compound 52]",100 to 500
16,"CC(O)c1c(C(F)(F)F)sc2c1CCOC21CCN[C@H](c2cn(C)nn2)C1 (single isomer, unassigned) [Compound 53]",< 100
17,"CCc1cc2c(s1)CCOC21CCNC(c2ccc(F)cc2)C1 (single isomer, unassigned) [Compound 78, 2-ethyl-2′-(4-fluorophenyl)spiro[6,7-dihydrothieno[3,2-c]pyran-4,4′-piperidine]]",500 to 1000
18,"Cc1ncc(C2CC3(CCN2)OCCc2cc(Cl)sc23)cn1 (stereo not shown) [Compound 1, 2-chloro-2′-(2-methylpyrimidin-5-yl)spiro[4,5-dihydrothieno[2,3-c]pyran-7,4′-piperidine]]",100 to 500
19,"CCc1cc2c(s1)CCOC21CCNC(C2CC2)C1 (stereo not shown) [Compound 3, 2′-cyclopropyl-2-ethyl-spiro[6,7-dihydrothieno[3,2-c]pyran-4,4′-piperidine]]",100 to 500
20,CCc1cc2c(s1)C1(CCNC(c3cn(C)nn3)C1)OCC2 (stereo not shown) [Compound 4],100 to 500
21,Cn1cc(C2CC3(CCN2)OCCc2cc(C(F)(F)F)sc23)nn1 (stereo not shown) [Compound 5],< 100
22,CCc1cc2c(s1)C1(CCNC(c3cc(C)no3)C1)OCC2 (stereo not shown) [Compound 6],< 100

row,Compound,IC50 [nM]
1,CCc1cc2c(s1)CCOC21CCNC(c2cnn(CCS(C)(=O)=O)c2)C1 (stereo not shown) [Compound 7],100 to 500
2,CCc1cc2c(s1)C(C)COC21CCNC(c2cn(C)nn2)C1 (stereo not shown) [Compound 9],100 to 500
3,CCc1cc2c(s1)CCOC21CCNC(c2cn(C)nn2)C1 (stereo not shown) [Compound 10],100 to 500
4,Cn1cc(C2CC3(CCN2)OCCc2sc(Cl)cc23)nn1 (stereo not shown) [Compound 11],500 to 1000
5,Cn1cnc(C2CC3(CCN2)OCCc2cc(Cl)sc23)c1 (stereo not shown) [Compound 12],500 to 1000
6,CCc1cc2c(s1)CCOC21CCNC(c2cn[nH]c2)C1 (stereo not shown) [Compound 13],500 to 1000
7,OCCn1cc(C2CC3(CCN2)OCCc2cc(Cl)sc23)cn1 (stereo not shown) [Compound 14],500 to 1000
8,CCc1cc2c(s1)CCOC21CCNC(c2ccnnc2)C1 (stereo not shown) [Compound 15],500 to 1000
9,CCc1cc2c(s1)CCOC21CCNC(C2(C)COC2)C1 (stereo not shown) [Compound 16],500 to 1000
10,Cn1ncc(C2CC3(CCN2)OCCc2cc(Cl)sc23)n1 (stereo not shown) [Compound 17],500 to 1000
11,CCc1cc2c(s1)CCOC21CCNC(c2cnc(C)nc2)C1 (stereo not shown) [Compound 18],500 to 1000
12,Clc1cc2c(s1)C1(CCNC(C3CC3)C1)OCC2 (stereo not shown) [Compound 19],500 to 1000
13,Cc1cc2c(s1)CCOC21CCNC(C2CC2)C1 (stereo not shown) [Compound 20],500 to 1000
14,FC(F)(F)c1cc2c(s1)CCOC21CCNC(C2CC2)C1 (stereo not shown) [Compound 21],100 to 500
15,Cn1cc([C@@H]2C[C@]3(CCN2)OCCc2cc(Br)sc23)nn1 [Compound 22],< 100
16,Clc1cc2c(s1)[C@@]1(CCN[C@H](c3cn[nH]c3)C1)OCC2 [Compound 26],< 100
17,CC1CO[C@]2(CCN[C@H](c3cn(C)nn3)C2)c2cc(Cl)sc21 (stereo partly shown) [Compound 28],100 to 500
18,"Cn1cc([C@@H]2CC3(CCN2)OCCc2cc(C4CC4)sc23)nn1 (stereo partly drawn) [Compound 30, (2S)-2′-cyclopropyl-2-(1-methyl-1H-1,2,3-triazol-4-yl)-4′,5′-dihydrospiro[piperidine-4,7′-thieno[2,3-c]pyran]]",500 to 1000
19,"Cn1cc([C@@H]2C[C@]3(CCN2)OCCc2cc(I)sc23)nn1 [Compound 33, (2S,4S)-2′-iodo-2-(1-methyl-1H-1,2,3-triazol-4-yl)-4′,5′-dihydrospiro[piperidine-4,7′-thieno[2,3-c]pyran]]",< 100
20,"Cc1cc([C@@H]2C[C@]3(CCN2)OCC(O)c2cc(Cl)sc23)on1 (stereo partly drawn) [Compound 34, (2S,4S)-2′-chloro-2-(3-methylisoxazol-5-yl)-4′,5′-dihydrospiro[piperidine-4,7′-thieno[2,3-c]pyran]-4′-ol]",100 to 500
21,"Cn1cc([C@@H]2C[C@]3(CCN2)OCC(O)c2cc(Cl)sc23)nn1 (stereo partly drawn) [Compound 35, (2S,4S)-2′-chloro-2-(1-methyl-1H-1,2,3-triazol-4-yl)-4′,5′-dihydrospiro[piperidine-4,7′-thieno[2,3-c]pyran]-4′-ol]",100 to 500
